Source: patent US4650868A, “7-deazapurine derivatives useful as antitumor agents” (Takeda Chemical Industries, Ltd., priority 1984, dated 1987)
Converted amounts (≈) assume the structure as drawn.

Key:
[1] = tested on: rat liver tRNA-guanine transglycosylase; test: Uptake of the compound into [3H]guanine-labeled tRNA; assay type: biochemical; settings: 0.02 OD260 of compound, 37° C., 17 hours, [3H]guanine labeled tRNA (8000 cpm)
Procedure: [^3 H] guanine labeled tRNA*) (8000 cpm), 70 mM of […], 60 mM of magnesium chloride, 0.5 unit of rat liver tRNA-guanine transglycosylase and 0.02 OD260 of the compound obtained in Example 1 to be described hereinafter were prepared to the total volume of 100 μl, and the reaction was allowed to proceed at 37° C. for 17 hours. The reaction solution was applied to a Whatman 3 MM filter paper (produced by Whatman Co., U.S.A.), which was washed three times with a 5% aqueous solution of trichloroacetic acid and once successively with ethanol/ether (1:1) and ether alone.
(*) tRNA with the first letter of its anticodon labeled with [^3 H]-guanine.

Meth A tumor cells = test: Meth A tumor subcutaneously transplanted into BALB/c mouse; assay type: in vivo; settings: 100 mg/kg intraperitoneally once a day for 14 consecutive days from day 4; tumor weight on 35th day after transplantation
Procedure: 5×10^4 Meth A tumor cells were subcutaneously transplanted into a BALB/c mouse weighing 20 g, and starting with the fourth day after transplantation, a solution of the compound as obtained in Example 3 to be described hereinafter in 0.1 ml of distilled water prepared in such a way that a dose might be 100 mg/kg was intraperitoneally injected into the mouse once a day for 14 consecutive days. On the 35th day after transplantation, the tumor node was enucleated and its weight (T) was measured.

L5178Y mouse tumor cells = test: Growth inhibition of cultured L5178Y cells; assay type: cell-based; settings: 72 hours incubation with drug, cell count, non-treated control = 100%, read-out: IC50 (50% growth inhibitory concentration)
Procedure: 1×10^4 L5178Y mouse tumor cells were suspended in 2 ml of a RPMI-1640 medium (produced by Nissui Pharmaceutical Co. of Japan) containing 10% of bovine fetal serum, 20 μM of 2-mercaptoethanol and 100 μg/ml of Kanamycin, and incubated at 37° C. for 24 hours before addition of the drug. Using the above culture fluid as a diluent, the compound as obtained in Example 3 to be described hereinafter was diluted 1/4-fold in a series of 5 stages and added to the culture medium in such a manner that the maximum concentration of the compound might be 200 μg/ml. The dilutions were further incubated for 72 hours, at the end of which time the cells were counted with use of a counter and the IC50 (50% growth inhibitory concentration) was calculated with the count for the non-treated control group being taken as 100%. The IC50 value was 2.0 μg/ml.

| uptake of the test compound into tRNA [1] [%] | IC50 (L5178Y mouse tumor cells) [µg/mL] | SMILES | tumor inhibition rate (T/C) (Meth A tumor cells) [%] |
| --- | --- | --- | --- |
| 120 | – | COc1ccccc1NCc1c[nH]c2nc(N)[nH]c(=O)c12 [Example 1, 2-amino-5-(2-methoxyphenylaminomethyl)pyrrolo[2,3-d]pyrimidin-4-one] | – |
| 140 | – | COc1cc(NCc2c[nH]c3nc(N)[nH]c(=O)c23)cc(OC)c1OC [Example 2 (2), 2-Amino-5-(3,4,5-trimethoxyphenylaminomethyl)pyrrolo[2,3-d]pyrimidin 4-one] | – |
| – | 2 (≈ 7.4 µM) | Nc1ccc(NCc2c[nH]c3nc(N)[nH]c(=O)c23)cc1 [Example 3, 2-amino-5-(4-aminophenylaminomethyl)pyrrolo[2,3-d]pyrimidin-4-one] | 36 |
